Measured values from patent publication US20090018111A1, “Novel Antimicrobial Medicament” (priority 2004, published 2009).
Read-outs that look alike come from different tables or passages of the source.

What was measured:
M. luteus ATCC9341 = test: Sensitivity test (agar dilution); type: cell-based, Micrococcus luteus; settings: Micrococcus luteus
Outline: (§1)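 FIC index is computed from MICs of each drug alone versus in combination (≤1 = enhancement, >1 = none). MICs are measured on Mueller Hinton agar plates carrying twofold dilution series and inoculated with about 10^6 CFU/ml bacterial suspension.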

E. faecalis ATCC19433 = test: Sensitivity test (agar dilution); type: cell-based, Enterococcus faecalis
Outline: as §1

B. subtilis ATCC6633 = test: Sensitivity test (agar dilution); type: cell-based, Bacillus subtilis; settings: Bacillus subtilis
Outline: as §1

E. coli ML1410 RP4 = test: microbe, parasite or virus in culture; type: cell-based, Escherichia coli; settings: Escherichia coli
Outline: as §1

K. pneumoniae ATCC10031 = test: Sensitivity test (agar dilution); type: cell-based, Klebsiella pneumoniae; settings: Klebsiella pneumoniae
Outline: as §1

P. mirabiris GN2425 = test: Sensitivity test (agar dilution); type: cell-based, Proteus mirabilis; settings: Proteus mirabilis
Outline: as §1

E. aerogenes ATCC13048 = test: Sensitivity test (agar dilution); type: cell-based, Enterobacter aerogenes; settings: Klebsiella aerogenes, E. aerogenes ATCC13048, read-out: MIC concomitant
Outline: as §1

C[C@H]1C=C(c2csc(SC3=C(C(=O)O)N4C(=O)[C@H]([C@@H](C)O)[C@H]4[C@H]3C)n2)CN1 [SM, (4R,5S,6S)-6-[(1R)-1-Hydroxyethyl]-4-methyl-3-({4-[(5S)-5-methyl-2,5-dihydro-1H-pyrrol-3-yl]-1,3-thiazol-2-yl}sulfanyl)-7-oxo-1-azabicyclo[3.2.0]hept-2-ene-2-carboxylic acid]
≤ 0.008 µg/mL: MIC (M. luteus ATCC9341; ATCC9341, Concomitant drug (MEPM:SM = 2:1), read-out: MIC) | MIC (M. luteus ATCC9341; ATCC9341, alone, read-out: MIC) | MIC (B. subtilis ATCC6633; ATCC6633, Concomitant drug (MEPM:SM = 2:1), read-out: MIC) | MIC (B. subtilis ATCC6633; ATCC6633, alone, read-out: MIC) | MIC (E. coli ML1410 RP4; ML1410RP4, Concomitant drug (MEPM:SM = 2:1)) | MIC (K. pneumoniae ATCC10031; ATCC10031, Concomitant drug (MEPM:SM = 2:1), read-out: MIC)
0.008 µg/mL: MIC (K. pneumoniae ATCC10031; ATCC10031, Concomitant (CAZ:SM = 1:1), K. pneumoniae ATCC10031, read-out: MIC concomitant) | MIC (K. pneumoniae ATCC10031; ATCC10031, Concomitant (DRPM:SM = 1:1), K. pneumoniae ATCC10031, read-out: MIC concomitant)
≤ 0.063 µg/mL: MIC (M. luteus ATCC9341; ATCC9341, Concomitant (MEPM:SM = 1:4), read-out: MIC) | MIC (B. subtilis ATCC6633; ATCC6633, Concomitant (MEPM:SM = 1:4), read-out: MIC) | MIC (E. coli ML1410 RP4; ML1410RP4, Concomitant (MEPM:SM = 1:4)) | MIC (K. pneumoniae ATCC10031; ATCC10031, Concomitant (MEPM:SM = 1:4), read-out: MIC) | MIC (P. mirabiris GN2425; GN2425, Concomitant (MEPM:SM = 1:4))
0.016 µg/mL: MIC (K. pneumoniae ATCC10031; ATCC10031, Concomitant (BIPM:SM = 1:1), K. pneumoniae ATCC10031, read-out: MIC concomitant) | MIC (K. pneumoniae ATCC10031; ATCC10031, Concomitant (PAPM:SM = 1:1), K. pneumoniae ATCC10031, read-out: MIC concomitant) | MIC (K. pneumoniae ATCC10031; ATCC10031, Concomitant (PIPC:SM = 1:1), K. pneumoniae ATCC10031, read-out: MIC concomitant) | MIC (P. mirabiris GN2425; GN2425, Concomitant drug (MEPM:SM = 2:1))
≤ 0.002 µg/mL: MIC (M. luteus ATCC9341; ATCC9341, Concomitant (AZT:SM = 1:1), M. luteus ATCC9341, read-out: MIC concomitant) | MIC (M. luteus ATCC9341; ATCC9341, Concomitant (CAZ:SM = 1:1), M. luteus ATCC9341, read-out: MIC concomitant) | MIC (M. luteus ATCC9341; ATCC9341, Concomitant (DRPM:SM = 1:1), M. luteus ATCC9341, read-out: MIC concomitant) | MIC (M. luteus ATCC9341; ATCC9341, Concomitant (PAPM:SM = 1:1), M. luteus ATCC9341, read-out: MIC concomitant) | MIC (M. luteus ATCC9341; ATCC9341, Concomitant (PIPC:SM = 1:1), M. luteus ATCC9341, read-out: MIC concomitant) | MIC (B. subtilis ATCC6633; ATCC6633, Concomitant (AZT:SM = 1:1), B. subtilis ATCC6633, read-out: MIC concomitant) | MIC (B. subtilis ATCC6633; ATCC6633, Concomitant (BIPM:SM = 1:1), B. subtilis ATCC6633, read-out: MIC concomitant) | MIC (B. subtilis ATCC6633; ATCC6633, Concomitant (CAZ:SM = 1:1), B. subtilis ATCC6633, read-out: MIC concomitant) | MIC (B. subtilis ATCC6633; ATCC6633, Concomitant (DRPM:SM = 1:1), B. subtilis ATCC6633, read-out: MIC concomitant) | MIC (B. subtilis ATCC6633; ATCC6633, Concomitant (IPM:SM = 1:1), read-out: MIC) | MIC (B. subtilis ATCC6633; ATCC6633, Concomitant (PAPM:SM = 1:1), B. subtilis ATCC6633, read-out: MIC concomitant) | MIC (B. subtilis ATCC6633; ATCC6633, Concomitant (PIPC:SM = 1:1), B. subtilis ATCC6633, read-out: MIC concomitant) | MIC (K. pneumoniae ATCC10031; ATCC10031, Concomitant (CPFX:SM = 1:1), K. pneumoniae ATCC10031, read-out: MIC concomitant)
≤ 0.016 µg/mL: MIC (M. luteus ATCC9341; ATCC9341, Concomitant (MEPM:SM = 1:1), read-out: MIC) | MIC (B. subtilis ATCC6633; ATCC6633, Concomitant (MEPM:SM = 1:1), read-out: MIC) | MIC (E. coli ML1410 RP4; ML1410RP4, Concomitant (MEPM:SM = 1:1)) | MIC (K. pneumoniae ATCC10031; ATCC10031, Concomitant (MEPM:SM = 1:1), read-out: MIC) | MIC (P. mirabiris GN2425; GN2425, Concomitant (MEPM:SM = 1:1))
≤ 0.031 µg/mL: MIC (M. luteus ATCC9341; ATCC9341, Concomitant (MEPM:SM = 1:2), read-out: MIC) | MIC (B. subtilis ATCC6633; ATCC6633, Concomitant (MEPM:SM = 1:2), read-out: MIC) | MIC (E. coli ML1410 RP4; ML1410RP4, Concomitant (MEPM:SM = 1:2)) | MIC (K. pneumoniae ATCC10031; ATCC10031, Concomitant (MEPM:SM = 1:2), read-out: MIC)
1 µg/mL: MIC (E. faecalis ATCC19433; Enterococcus faecalis, ATCC19433, Concomitant (AZT:SM = 1:1), E. faecalis ATCC19433, read-out: MIC concomitant) | MIC (E. faecalis ATCC19433; Enterococcus faecalis, ATCC19433, Concomitant (BIPM:SM = 1:1), E. faecalis ATCC19433, read-out: MIC concomitant) | MIC (E. faecalis ATCC19433; Enterococcus faecalis, ATCC19433, Concomitant (CAZ:SM = 1:1), E. faecalis ATCC19433, read-out: MIC concomitant) | MIC (E. faecalis ATCC19433; Enterococcus faecalis, ATCC19433, Concomitant (DRPM:SM = 1:1), E. faecalis ATCC19433, read-out: MIC concomitant) | MIC (E. faecalis ATCC19433; Enterococcus faecalis, ATCC19433, Concomitant (MEPM:SM = 1:1), read-out: MIC) | MIC (E. faecalis ATCC19433; Enterococcus faecalis, ATCC19433, Concomitant (MEPM:SM = 1:2), read-out: MIC) | MIC (E. faecalis ATCC19433; Enterococcus faecalis, ATCC19433, Concomitant (MEPM:SM = 1:4), read-out: MIC) | MIC (E. faecalis ATCC19433; Enterococcus faecalis, ATCC19433, Concomitant (PAPM:SM = 1:1), E. faecalis ATCC19433, read-out: MIC concomitant) | MIC (E. faecalis ATCC19433; Enterococcus faecalis, ATCC19433, alone, read-out: MIC) | MIC alone (E. faecalis ATCC19433; drug alone, E. faecalis ATCC19433)
2 µg/mL: MIC (E. faecalis ATCC19433; Enterococcus faecalis, ATCC19433, drug alone, E. faecalis ATCC19433, read-out: MIC alone) | MIC (E. faecalis ATCC19433; alone)
0.5 µg/mL: MIC (E. faecalis ATCC19433; Enterococcus faecalis, ATCC19433, Concomitant (CPFX:SM = 1:1), E. faecalis ATCC19433, read-out: MIC concomitant) | MIC (E. faecalis ATCC19433; Enterococcus faecalis, ATCC19433, Concomitant (IPM:SM = 1:1), read-out: MIC) | MIC (E. faecalis ATCC19433; Enterococcus faecalis, ATCC19433, Concomitant (PIPC:SM = 1:1), E. faecalis ATCC19433, read-out: MIC concomitant) | MIC (E. faecalis ATCC19433; Enterococcus faecalis, ATCC19433, Concomitant drug (MEPM:SM = 2:1), read-out: MIC) | MIC (E. coli ML1410 RP4; ML1410RP4, alone) | MIC (E. coli ML1410 RP4; ML1410RP4, read-out: MIC alone, drug alone, E. coli ML1410 RP4) | MIC (E. coli ML1410 RP4; ML1410RP4, read-out: MIC concomitant, Concomitant (PIPC:SM = 1:1), E. coli ML1410 RP4)
0.25 µg/mL: MIC (E. coli ML1410 RP4; ML1410RP4, read-out: MIC concomitant, Concomitant (CPFX:SM = 1:1), E. coli ML1410 RP4) | MIC (P. mirabiris GN2425; GN2425, Concomitant (IPM:SM = 1:1))
8 µg/mL: MIC (E. aerogenes ATCC13048; ATCC13048, Concomitant (AZT:SM = 1:1)) | MIC (E. aerogenes ATCC13048; ATCC13048, Concomitant (CAZ:SM = 1:1))
0.125 µg/mL: MIC (E. coli ML1410 RP4; ML1410RP4, Concomitant (IPM:SM = 1:1)) | MIC (E. coli ML1410 RP4; ML1410RP4, read-out: MIC concomitant, Concomitant (BIPM:SM = 1:1), E. coli ML1410 RP4) | MIC (E. coli ML1410 RP4; ML1410RP4, read-out: MIC concomitant, Concomitant (CAZ:SM = 1:1), E. coli ML1410 RP4) | MIC (E. coli ML1410 RP4; ML1410RP4, read-out: MIC concomitant, Concomitant (PAPM:SM = 1:1), E. coli ML1410 RP4) | MIC (P. mirabiris GN2425; GN2425, alone) | MIC (P. mirabiris GN2425; GN2425, read-out: MIC alone, drug alone, P. mirabiris GN2425) | MIC (P. mirabiris GN2425; GN2425, read-out: MIC concomitant, Concomitant (BIPM:SM = 1:1), P. mirabiris GN2425) | MIC (P. mirabiris GN2425; GN2425, read-out: MIC concomitant, Concomitant (PAPM:SM = 1:1), P. mirabiris GN2425)
0.031 µg/mL: MIC (E. coli ML1410 RP4; ML1410RP4, read-out: MIC concomitant, Concomitant (DRPM:SM = 1:1), E. coli ML1410 RP4) | MIC (K. pneumoniae ATCC10031; ATCC10031, Concomitant (IPM:SM = 1:1), read-out: MIC) | MIC (P. mirabiris GN2425; GN2425, read-out: MIC concomitant, Concomitant (CAZ:SM = 1:1), P. mirabiris GN2425) | MIC (P. mirabiris GN2425; GN2425, read-out: MIC concomitant, Concomitant (CPFX:SM = 1:1), P. mirabiris GN2425) | MIC (E. aerogenes ATCC13048; ATCC13048, Concomitant (CPFX:SM = 1:1)) | MIC (E. aerogenes ATCC13048; ATCC13048, Concomitant (DRPM:SM = 1:1))
0.063 µg/mL: MIC (E. coli ML1410 RP4; ML1410RP4, read-out: MIC concomitant, Concomitant (AZT:SM = 1:1), E. coli ML1410 RP4) | MIC (P. mirabiris GN2425; GN2425, Concomitant (MEPM:SM = 1:2)) | MIC (P. mirabiris GN2425; GN2425, read-out: MIC concomitant, Concomitant (DRPM:SM = 1:1), P. mirabiris GN2425) | MIC (P. mirabiris GN2425; GN2425, read-out: MIC concomitant, Concomitant (PIPC:SM = 1:1), P. mirabiris GN2425) | MIC (E. aerogenes ATCC13048; ATCC13048, Concomitant (BIPM:SM = 1:1))
0.004 µg/mL: MIC (M. luteus ATCC9341; ATCC9341, Concomitant (BIPM:SM = 1:1), M. luteus ATCC9341, read-out: MIC concomitant) | MIC (M. luteus ATCC9341; ATCC9341, Concomitant (CPFX:SM = 1:1), M. luteus ATCC9341, read-out: MIC concomitant) | MIC (M. luteus ATCC9341; ATCC9341, Concomitant (IPM:SM = 1:1), read-out: MIC) | MIC (M. luteus ATCC9341; ATCC9341, drug alone, M. luteus ATCC9341, read-out: MIC alone) | MIC (B. subtilis ATCC6633; ATCC6633, Concomitant (CPFX:SM = 1:1), B. subtilis ATCC6633, read-out: MIC concomitant) | MIC (B. subtilis ATCC6633; ATCC6633, drug alone, B. subtilis ATCC6633, read-out: MIC alone) | MIC (K. pneumoniae ATCC10031; ATCC10031, Concomitant (AZT:SM = 1:1), K. pneumoniae ATCC10031, read-out: MIC concomitant) | MIC (P. mirabiris GN2425; GN2425, read-out: MIC concomitant, Concomitant (AZT:SM = 1:1), P. mirabiris GN2425)
